# “And” between values parts separate entries of the source, which are not always exact repeats. Equal entries are not always repeated. Where two headings read alike, the source gives them in different places.
# Assays:
# [1] = tested on: KPC-2 producing K. pneumoniae (ATCC BAA-1705); experiment: Synergistic broth micro-dilution MIC (checkerboard); assay type: cell-based, Klebsiella pneumoniae; conditions: ATCC BAA-1705
# [2] = tested on: K. pneumoniae UMM3 (KPC2); experiment: Synergistic broth micro-dilution MIC; assay type: cell-based, Klebsiella pneumoniae; conditions: BLI at 4 μg/mL
# [3] = tested on: E. cloacae 01 MGH 049 (KPC2, AmpC); experiment: Synergistic broth micro-dilution MIC; assay type: cell-based; conditions: BLI at 4 μg/mL
# [4] = tested on: E. coli Ecoli233 (KPC3); experiment: Synergistic broth micro-dilution MIC; assay type: cell-based, Escherichia coli
# [5] = tested on: K. pneumoniae NCTC 13438 (KPC3); experiment: Synergistic broth micro-dilution MIC; assay type: cell-based, Klebsiella pneumoniae; conditions: BLI at 4 μg/mL
# [6] = tested on: KPC-3 expressing E. coli (J53 R6206); experiment: microbe, parasite or virus in culture; assay type: cell-based, Escherichia coli
# Experimental: The β-lactam compound was tested for in vitro antibacterial activities by the broth micro-dilution or agar dilution method as specified in documents published by Clinical and Laboratory Standards Institute (CLSI), USA (formerly NCCLS). Approved standard M7-A7, January 2006, CLSI, Wayne, Pa., USA and M100-S18, January 2008, CLSI, Wayne, Pa., USA.
# In agar dilution method briefly, stock solutions of the cephalosporins for veterinary use (e.g. 2 mg/mL) was made in water, 0.1M phosphate buffers or appropriate solvents and the solution was serially two fold diluted. Compound-1 was dissolved in water and Tazobactam (comparator BLI) in 0.1M phosphate buffer, pH 6.0 to get a solution of 1 mg/mL. Cephalosporins were screened in a concentration range of 0.5-32 μg/mL. For combination, Tazobactam or the Compound-1 described herein were tested at a fixed concentration of 4 μg/mL along with the cephalosporins concentration ranging from 0.5 to 32 μg/mL. […] The compound of formula (I) and Tazobactam were also tested individually. The bacterial inoculum was prepared by picking 3 to 5 well isolated bacterial colonies with the same morphological appearance from an 18-24 h old culture and adjusting the turbidity of the saline suspension to 0.5 McFarland turbidity standard equivalent to a bacterial population of ˜1×10^8 CFU per mL of suspension. The suspension was diluted 1:10 in saline to get a bacterial population of ˜1×10^7 CFU/mL as inoculum. This bacterial inoculum was inoculated onto the prepared petri dishes by a multipoint inoculator with each inoculum spot containing ˜1×10^4 CFU of the bacterial strain. The inoculated petri dishes were incubated at 35° C. in an ambient atmosphere for 18-20 h.
# [7] = tested on: KPC2 K. pneumoniae ATCC BAA 1705; experiment: Mice systemic infection model; assay type: in vivo; conditions: Klebsiella pneumoniae
# Experimental: Female Swiss Albino mice, weighing 18-22 g were used for all studies. For each dose group, 5 or 6 mice were included. Study protocols were reviewed and approved by Institutional Animal Ethical Committee, Orchid Research Laboratories Limited. Mice were housed in individually ventilated cages provided with food and water ad libitum, throughout the study period. From overnight culture in Brain-Heart Infusion agar medium, challenge inoculum with required bacterial density was prepared in normal saline containing Hog gastric mucin. In studies involved with doripenem, washed bacterial cells was used. Each mouse was infected […] inoculum by intra-peritoneal injection.
# Infected mice were dosed sub-cutaneously, with drug preparations at three different time points post-infection.
# Imipenem with BLI combinations: Increasing concentrations of Imipenem as single agent or in combination with fixed concentration of BLIs were used to dose infected mice, sub-cutaneously. In this experiment Imipenem was always administered along with cilastatin. Doripenem with BLI combinations: Increasing concentrations of doripenem as single agent or in combination with fixed concentration of BLIs were used to dose infected mice, sub-cutaneously.
# Survival of the treated mice were monitored twice a day, up to 7 days post-infection. Efficacy dose 50 (ED50) was calculated by Reed and Muench method (Reed, L. J.; Muench, H. “A simple method of estimating fifty percent endpoints”. The American Journal of Hygiene, 1938, 27: 493-497.).
# [8] = tested on: KPC2 K. pneumoniae ATCC BAA 1705; experiment: Mice systemic infection model; assay type: in vivo; conditions: sub-cutaneous, printed as piperacillin:BLI dose
# [9] = BLI at 4 μg/mL, E. coli J53 R6206
compound,measurement,setting,value
"C[n+]1ccn(C[C@@]2(C)[C@H](C(=O)[O-])N3C(=O)C[C@H]3S2(=O)=O)n1 [Compound-1, 1-{[(2S,3S,5R)-2-Carboxy-3-methyl-4,4,7-trioxo-4-thia-1-azabicyclo[3.2.0]hept-3-yl]methyl}-3-methyl-1H-1,2,3-triazol-3-ium]",MIC of Cefquinome in combination with BLI,[1]; BLI at 1 μg/mL,>64 µg/mL
same,MIC of Ceftiofur in combination with BLI,[1]; BLI at 1 μg/mL,>64 µg/mL
same,MIC of Cefepime in combination with BLI,[1]; BLI at 2 μg/mL,64 µg/mL
same,MIC of Cefotaxime in combination with BLI,[1]; BLI at 2 μg/mL,32 µg/mL
same,MIC of Cefquinome in combination with BLI,[1]; BLI at 2 μg/mL,>64 µg/mL
same,MIC of Ceftazidime in combination with BLI,[1]; BLI at 2 μg/mL,>64 µg/mL
same,MIC of Ceftiofur in combination with BLI,[1]; BLI at 2 μg/mL,>64 µg/mL
same,MIC of Ceftobiprole in combination with BLI,[1]; BLI at 2 μg/mL,>64 µg/mL
same,MIC of Imipenem in combination with BLI,[1]; BLI at 2 μg/mL,4 to 8 µg/mL
same,MIC of Meropenem in combination with BLI,[1]; BLI at 2 μg/mL,16 µg/mL
same,MIC of Aztreonam in combination with BLI,[1]; BLI at 4 μg/mL,>64 µg/mL
same,MIC of Cefadroxil in combination with BLI,[1]; BLI at 4 μg/mL,>64 µg/mL
same,MIC of Cefalonium in combination with BLI,[1]; BLI at 4 μg/mL,>64 µg/mL
same,MIC of Cefepime in combination with BLI,[1]; BLI at 4 μg/mL,32 µg/mL
same,MIC of Cefotaxime in combination with BLI,[1]; BLI at 4 μg/mL,16 µg/mL
same,MIC of Cefquinome in combination with BLI,[1]; BLI at 4 μg/mL,64 µg/mL
same,MIC of Ceftazidime in combination with BLI,[1]; BLI at 4 μg/mL,≥64 µg/mL
same,MIC of Ceftiofur in combination with BLI,[1]; BLI at 4 μg/mL,>64 µg/mL
same,MIC of Ceftobiprole in combination with BLI,[1]; BLI at 4 μg/mL,>64 µg/mL
same,MIC of Ertapenem in combination with BLI,[1]; BLI at 4 μg/mL,32 µg/mL
same,MIC of Faropenem in combination with BLI,[1]; BLI at 4 μg/mL,>64 µg/mL
same,MIC of Imipenem in combination with BLI,[1]; BLI at 4 μg/mL,4 µg/mL
same,MIC of Meropenem in combination with BLI,[1]; BLI at 4 μg/mL,4 to 8 µg/mL and 8 µg/mL
same,MIC of Cefepime in combination with BLI,[1]; BLI at 8 μg/mL,16 µg/mL
same,MIC of Cefotaxime in combination with BLI,[1]; BLI at 8 μg/mL,16 µg/mL
same,MIC of Cefquinome in combination with BLI,[1]; BLI at 8 μg/mL,64 µg/mL
same,MIC of Ceftazidime in combination with BLI,[1]; BLI at 8 μg/mL,64 µg/mL
same,MIC of Ceftiofur in combination with BLI,[1]; BLI at 8 μg/mL,64 µg/mL
same,MIC of Ceftobiprole in combination with BLI,[1]; BLI at 8 μg/mL,>64 µg/mL
same,MIC of Ertapenem in combination with BLI,[1]; BLI at 8 μg/mL,16 µg/mL
same,MIC of Faropenem in combination with BLI,[1]; BLI at 8 μg/mL,>64 µg/mL
same,MIC of Imipenem in combination with BLI,[1]; BLI at 8 μg/mL,2 µg/mL
same,MIC of Meropenem in combination with BLI,[1]; BLI at 8 μg/mL,2 to 4 µg/mL
same,MIC of Aztreonam in combination with BLI,[1]; BLI at 16 μg/mL,64 µg/mL
same,MIC of Cefadroxil in combination with BLI,[1]; BLI at 16 μg/mL,>64 µg/mL
same,MIC of Cefalonium in combination with BLI,[1]; BLI at 16 μg/mL,32 µg/mL
same,MIC of Cefepime in combination with BLI,[1]; BLI at 16 μg/mL,4 µg/mL
same,MIC of Cefotaxime in combination with BLI,[1]; BLI at 16 μg/mL,4 µg/mL
same,MIC of Cefquinome in combination with BLI,[1]; BLI at 16 μg/mL,8 to 16 µg/mL
same,MIC of Ceftazidime in combination with BLI,[1]; BLI at 16 μg/mL,4 µg/mL
same,MIC of Ceftiofur in combination with BLI,[1]; BLI at 16 μg/mL,16 to 32 µg/mL
same,MIC of Ceftobiprole in combination with BLI,[1]; BLI at 16 μg/mL,64 µg/mL
same,MIC of Ertapenem in combination with BLI,[1]; BLI at 16 μg/mL,8 µg/mL
same,MIC of Faropenem in combination with BLI,[1]; BLI at 16 μg/mL,64 µg/mL
same,MIC of Imipenem in combination with BLI,[1]; BLI at 16 μg/mL,<0.5 to 1 µg/mL and 1 µg/mL
same,MIC of Meropenem in combination with BLI,[1]; BLI at 16 μg/mL,1 µg/mL
same,MIC of Cefquinome in combination with BLI,[1]; BLI at 32 μg/mL,2 to 4 µg/mL
same,MIC of Ceftiofur in combination with BLI,[1]; BLI at 32 μg/mL,4 µg/mL
same,MIC of Aztreonam in combination with BLI,[1]; BLI at 64 μg/mL,<0.5 µg/mL
same,MIC of Cefadroxil in combination with BLI,[1]; BLI at 64 μg/mL,64 µg/mL
same,MIC of Cefalonium in combination with BLI,[1]; BLI at 64 μg/mL,8 µg/mL
same,MIC of Cefepime in combination with BLI,[1]; BLI at 64 μg/mL,<0.5 µg/mL
same,MIC of Cefotaxime in combination with BLI,[1]; BLI at 64 μg/mL,≤0.5 µg/mL
same,MIC of Cefquinome in combination with BLI,[1]; BLI at 64 μg/mL,1 µg/mL
same,MIC of Ceftazidime in combination with BLI,[1]; BLI at 64 μg/mL,1 µg/mL
same,MIC of Ceftiofur in combination with BLI,[1]; BLI at 64 μg/mL,2 to 4 µg/mL
same,MIC of Ceftobiprole in combination with BLI,[1]; BLI at 64 μg/mL,≤0.5 µg/mL
same,MIC of Ertapenem in combination with BLI,[1]; BLI at 64 μg/mL,<0.5 µg/mL
same,MIC of Faropenem in combination with BLI,[1]; BLI at 64 μg/mL,4 µg/mL
same,MIC of Imipenem in combination with BLI,[1]; BLI at 64 μg/mL,<0.5 to 1 µg/mL
same,MIC of Meropenem in combination with BLI,[1]; BLI at 64 μg/mL,<0.5 µg/mL
same,MIC of Imipenem in combination with BLI,[2],1 µg/mL
same,MIC of Imipenem in combination with BLI,[3],4 µg/mL
same,MIC of Imipenem in combination with BLI,[4]; BLI at 4 μg/mL,4 µg/mL
same,MIC of Imipenem in combination with BLI,[4]; BLI at 16 μg/mL,1 µg/mL
same,MIC of Imipenem in combination with BLI,[5],32 µg/mL
same,MIC of Cefadroxil in combination with BLI,[6]; [9],>32 µg/mL
same,MIC of Cefalonium in combination with BLI,[6]; [9],4 µg/mL
same,MIC of Cefquinome in combination with BLI,[6]; [9],<0.5 µg/mL
same,MIC of Ceftiofur in combination with BLI,[6]; [9],<0.5 µg/mL
same,MIC,"[6]; Escherichia coli, read-out: MIC of BLI alone",> 16 µg/mL
same,ED50,"[7]; BAA1705, 168 h, read-out: ED50, single agent",> 64 mg/kg
same,ED50,"[7]; BAA1705, BLI fixed at 64 mg/kg, mice, sub-cutaneous, with cilastatin, read-out: ED50 of Imipenem + BLI",2.2 mg/kg
same,ED50 of Piperacillin:BLI at 1:1 ratio,[8],50 mg/kg and 50:50 mg/kg
